Here are results for 28 compounds from US20240165276A1, “SELECTIVE LIGANDS FOR TAU AGGREGATES” (KARIN & STEN MORTSTEDT CBD SOLUTIONS AB, priority 2019, published 2024).

Molecules are shown by their SMILES. pIC50: −log10 of the molar value. Read-outs that look alike come from different tables or passages of the source. Where only a bound is given, the exact number is not on record here.

The test system of data set [1] is recombinant 0N4R Tau fibrils. The experiment in a line: ^3H-THK5117 competition binding to tau fibrils in vitro. The conditions noted are these: calculated from [^3H]-THK5117 tau and [^3H]-AZD2184 Aβ assay results. The method, then:
(§1) ^3H-THK5117 Competition Binding to Tau Fibrils In Vitro
(§2) Preparation of recombinant 0N4R Tau fibrils was performed as previously described in Morozova, O. A., Biochemistry (2013), Vol., 52(40), pages 6960-6967. Competition binding experiments to 0N4R Tau fibrils were performed by incubating increasing concentrations [10^−10-10^−6 M] of the Example compounds of the invention, or the known tau specific ligand PBB3 (PBB3 was synthesized as previously described in M. Maruyama, et al, Neuron 2013, 79, 1094-1108) or MK6240 (Novandi Chemistry AB), in the presence of 3 nM of the known tau ligand [^3H]-THK5117 (Novandi Chemistry) and 0.2 mM 0N4R tau fibrils in binding buffer (50 mM Tris-HCl, pH 7.4, 0.1% BSA) for 1 h in the dark, and at 22° C. The incubation was terminated by filtration through a Whatman GF/B glass filter (Whatman International, Kent, UK) using a Brandel cell harvester. The filter was then washed rapidly four times with 3 mL of ice-cold wash buffer (5 mM Tris-HCl, 0.25 mM NaCl, 5% EtOH), and equilibrated for 1 h in scintillation vials containing 5 mL of Ultima Gold scintillation fluid before being analysed using a Liquid Scintillation Analyzer.
(§3) The results are shown in Table 2 in the column labeled “Tau IC50”.
(§4) Relative Selectivity for Tau vs. Aβ
(§5) Relative selectivity for tau compared to Aβ for the exemplified compounds was calculated using the results for the [^3H]-THK5117 tau and [^3H]-AZD2184 Aβ assays described above. The calculated results are shown in Table 2 in the column labeled “Selectivity for tau relative to Aβ”.

Data set [2] addresses recombinant 0N4R Tau fibrils (Homo sapiens (Human), UniProt P10636). The data set is described as above. The conditions noted are these: for pIC50: competition with 3 nM [^3H]-THK5117, 0N4R tau fibrils, 1 h, 22° C., average if run more than once. The method, then: as §1, §2, §3, §4, §5
The target in data set [3] is Aβ(1-42) amyloid fibrils (Homo sapiens, UniProt P05067). In words: ^3H-AZD2184 competition binding to Aβ(1-42) fibrils in vitro. The conditions noted are these: competition with [^3H]-AZD2184, Aβ(1-42) amyloid fibrils; average if run more than once. The method, then:
^3H-AZD2184 Competition Binding to Aβ(1-42) Fibrils In Vitro
Competition binding experiments to Aβ(1-42) amyloid fibrils were performed as previously described in Jureus, A., et al, Journal of Neurochemistry (2010), Vol. 114, pages 784-794 for the Example compounds of the invention indicated in Table 2, or the known tau specific ligand PBB3 (PBB3 was synthesized as previously described in M. Maruyama, et al, Neuron 2013, 79, 1094-1108).
The results are shown in Table 2 in the column labeled “Aβ IC50”.

For data set [4] the following is noted: cited from earlier work.

The pIC50 is the negative decadic logarithm of the IC50, by convention in mol/L.

Chain of recombinant 0N4R Tau fibrils (Homo sapiens (Human), UniProt P10636) (P10636 other isoform, or with tags, fused parts or gaps): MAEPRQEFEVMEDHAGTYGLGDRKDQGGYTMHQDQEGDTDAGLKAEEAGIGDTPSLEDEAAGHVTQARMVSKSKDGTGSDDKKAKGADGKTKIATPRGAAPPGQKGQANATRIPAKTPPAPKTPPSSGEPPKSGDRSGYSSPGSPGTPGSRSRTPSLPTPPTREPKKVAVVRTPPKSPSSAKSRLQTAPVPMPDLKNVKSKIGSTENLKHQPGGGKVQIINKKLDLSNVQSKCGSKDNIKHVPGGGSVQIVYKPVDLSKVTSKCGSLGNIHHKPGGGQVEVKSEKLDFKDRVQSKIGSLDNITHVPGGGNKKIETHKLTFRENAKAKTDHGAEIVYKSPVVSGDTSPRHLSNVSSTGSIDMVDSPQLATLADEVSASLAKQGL
Chain of Aβ(1-42) amyloid fibrils (P05067 672-713 limits assumed): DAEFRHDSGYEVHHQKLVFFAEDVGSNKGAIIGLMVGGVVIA

In the case of `OCC1CN(c2ccc(-c3cc4cc(O)ccc4[nH]3)c(F)n2)C1` [Compound 4], in data set [1], the “Selectivity for tau relative to Aβ” value is recorded as 1.2. Further, the pIC50 in data set [2] is 7.42; in data set [3] it was 7.33.
As for `OCC1(O)CCN(c2ccc(-c3cc4cc(O)ccc4[nH]3)c(F)n2)CC1` [Compound 21, 2-{2-Fluoro-6-[4-hydroxy-4-(hydroxymethyl)piperidin-1-yl]pyridin-3-yl}-1H-indol-5-ol], the “Selectivity for tau relative to Aβ” value in data set [1] was 0.2. Further, the negative logarithm of the IC50 (pIC50) in data set [2] is 7.40; in data set [3], 8.05.
For `COc1ccc2nc(-c3ccc(N4CCC(O)(CO)CC4)nc3)sc2c1` [Compound 14, 4-(Hydroxymethyl)-1-[5-(6-methoxy-1,3-benzothiazol-2-yl)pyridin-2-yl]piperidin-4-ol], the “Selectivity for tau relative to Aβ” value in data set [1] is on record as 7.2. Moreover, the pIC50 was 8.05 in data set [2] and 7.19 in data set [3].
The like results for `CNc1ccc(/C=C/C=C/c2nc3ccc(O)cc3s2)cn1` [PBB3, reference compound] were, in that order, 4, 8.15 and 7.55.
Take `OCC1CCN(c2ccc(-c3cc4ccc(O)cc4[nH]3)c(F)n2)CC1` [Compound 22, 2-{2-Fluoro-6-[4-(hydroxymethyl)piperidin-1-yl]pyridin-3-yl}-1H-indol-6-ol]: the “Selectivity for tau relative to Aβ” value in data set [1] is recorded as 1. For the same compound, the pIC50 in data set [2] and in data set [3] was 8.52 throughout.
With `COc1ccc2nc(-c3ccc(N4C[C@H](O)C[C@@H](O)C4)nc3)sc2c1` [Compound 25, (3R,5R)-1-[5-(6-Methoxy-1,3-benzothiazol-2-yl)pyridin-2-yl]piperidine-3,5-diol], the pIC50 in data set [2] was 7.21.
Turning to `COc1ccc2nc(-c3ccc(N4CC[C@@H](O)C4)nc3)sc2c1` [Compound 2, (3R)-1-[5-(6-Methoxy-1,3-benzothiazol-2-yl)pyridin-2-yl]pyrrolidin-3-ol], in data set [1], the “Selectivity for tau relative to Aβ” value is reported as 1.2. Further, the pIC50 is 7.74 in data set [2] and 7.66 in data set [3].
As for `COc1ccc2nc(-c3ccc(N4C[C@H](O)C[C@H](O)C4)nc3)sc2c1` [Compound 12, (3R,5S)-1-[5-(6-Methoxy-1,3-benzothiazol-2-yl)pyridin-2-yl]piperidine-3,5-diol], in data set [2], the pIC50 is 7.40.
As to `Oc1ccc2[nH]c(-c3ccc(N4CCC[C@H](O)C4)nc3F)cc2c1` [Compound 7, 2-{2-Fluoro-6-[(3S)-3-hydroxypiperidin-1-yl]pyridin-3-yl}-1H-indol-5-ol], in data set [1], the “Selectivity for tau relative to Aβ” value was 8.9. Besides, the negative-log IC50 (pIC50) in data set [2] is 8.05; in data set [3] it was 7.10.
For the compound `COc1ccc2nc(-c3ccc(N4CC[C@H](O)C4)nc3)sc2c1` [Compound 3, (3S)-1-[5-(6-Methoxy-1,3-benzothiazol-2-yl)pyridin-2-yl]pyrrolidin-3-ol], the “Selectivity for tau relative to Aβ” value in data set [1] is reported as 1. Besides, the pIC50 in data set [2] and in data set [3] was 7.96 each time.
Consider `COc1ccc2nc(-c3ccc(N4CC[C@@H](O)[C@H](O)C4)nc3)sc2c1` [Compound 8, (3R,4R)-1-[5-(6-Methoxy-1,3-benzothiazol-2-yl)pyridin-2-yl]piperidine-3,4-diol], for which the negative logarithm of the IC50 (pIC50) in data set [2] is 7.80.
Take `COc1ccc2nc(-c3ccc(N4CC[C@@H](CO)[C@@H](O)C4)nc3)sc2c1` [Compound 24]: the negative-log IC50 (pIC50) in data set [2] was 8.05.
In the case of `Oc1ccc2[nH]c(-c3cnc(N4CCC[C@@H](O)C4)nc3)cc2c1` [Compound 30, 2-{2-[(3R)-3-Hydroxypiperidin-1-yl]pyrimidin-5-yl}-1H-indol-5-ol], the “Selectivity for tau relative to Aβ” value in data set [1] is listed as 0.6. For the same compound, the figures for the pIC50 in data set [2] and in data set [3] were 6.82 and 7.05, respectively.
With `CNc1ccc(/C=C/C=C/c2nc3ccc(O)cc3s2)cn1` [^11C-PBB3], the results for the “radiochemical purity after exposure to fluorescent light” value in data set [4] (1 min after exposure to fluorescent light) and in data set [4] (from 10 to 60 min after exposure to fluorescent light) were 77% and “approximately 50%”, respectively.
For the compound `COC(=O)C1CN(c2ccc(-c3cc4cc(O)ccc4[nH]3)c(F)n2)C1` [Compound 33, Methyl 1-[6-Fluoro-5-(5-hydroxy-1H-indol-2-yl)pyridin-2-yl]azetidine-3-carboxylate], in data set [2], the negative logarithm of the IC50 (pIC50) was 8.22.
On to `O[C@@H]1CCCN(c2ncc(-c3cc4cc(OCCOCCOCCF)ccc4[nH]3)cn2)C1` [Compound 32, (3R)-1-[5-(5-{2-[2-(2-Fluoroethoxy)ethoxy]ethoxy}-1H-indol-2-yl)pyrimidin-2-yl]piperidin-3-ol], for which the “Selectivity for tau relative to Aβ” value in data set [1] was 0.3. The pIC50 in data set [2] was 7.05; in data set [3], 7.60.
On to `OC[C@@H]1CCN(c2ccc(-c3cc4cc(O)ccc4[nH]3)c(F)n2)C[C@@H]1O` [Compound 26], for which the pIC50 in data set [2] is 7.32.
In the case of `COc1ccc2nc(-c3ccc(N4CCCC(O)C4)nc3)sc2c1` (stereo not shown) [Compound 1, 1-[5-(6-Methoxy-1,3-benzothiazol-2-yl)pyridin-2-yl]piperidin-3-ol], the “Selectivity for tau relative to Aβ” value in data set [1] is recorded as 2. Besides, the negative logarithm of the IC50 (pIC50) was 8.40 in data set [2] and 8.10 in data set [3].
Turning to `O[C@@H]1CCCN(c2ncc(-c3cc4cc(OCCF)ccc4[nH]3)cn2)C1` [Compound 31, (3R)-1-{5-[5-(2-Fluoroethoxy)-1H-indol-2-yl]pyrimidin-2-yl}piperidin-3-ol], in data set [1], the “Selectivity for tau relative to Aβ” value is listed as 1.2. In addition, the pIC50 in data set [2] is 8.00; in data set [3] it was 7.92.
For `O[C@@H]1CCCN(c2ccc(-c3cc4cc(OCCF)ccc4[nH]3)cn2)C1` [Compound 28, (3R)-1-{5-[5-(2-Fluoroethoxy)-1H-indol-2-yl]pyridin-2-yl}piperidin-3-ol] the same measures were 2, 8.40 and 8.10.
`COc1ccc2nc(-c3ccc(N4CC[C@@H](CO)[C@H](O)C4)nc3)sc2c1` [Compound 11, (3S,4S)-4-(Hydroxymethyl)-1-[5-(6-methoxy-1,3-benzothiazol-2-yl)pyridin-2-yl]piperidin-3-ol]: the negative-log IC50 (pIC50) in data set [2] is 7.96.
On to `COc1ccc2nc(-c3ccc(N4CC[C@@H](O)[C@@H](O)C4)nc3)sc2c1` [Compound 23, (3S,4R)-1-[5-(6-Methoxy-1,3-benzothiazol-2-yl)pyridin-2-yl]piperidine-3,4-diol], for which the pIC50 in data set [2] was 8.22.
Turning to `OC[C@@H]1CCN(c2ccc(-c3cc4cc(O)ccc4[nH]3)c(F)n2)C[C@H]1O` [Compound 18, 2-{2-Fluoro-6-[(3S,4S)-3-hydroxy-4-(hydroxymethyl)piperidin-1-yl]pyridin-3-yl}-1H-indol-5-ol], the negative logarithm of the IC50 (pIC50) in data set [2] is 7.54.
Regarding `O[C@@H]1CCCN(c2ccc(-c3cc4cc(OCCOCCOCCF)ccc4[nH]3)cn2)C1` [Compound 29, (3R)-1-[5-(5-{2-[2-(2-Fluoroethoxy)ethoxy]ethoxy}-1H-indol-2-yl)pyridin-2-yl]piperidin-3-ol], the “Selectivity for tau relative to Aβ” value in data set [1] was 5.7. For the same compound, the pIC50 is 7.85 in data set [2] and 7.10 in data set [3].
On to `Nc1c(F)ccc2cnc(-n3ccc4ccncc43)cc12` [MK-6420, reference compound], for which the pIC50 in data set [2] is under 6.00. In addition, in data set [2] (recombinant 4R tau fibrils, [^3H]-THK5117 competition), the “binding in the recombinant 4R tau fibrils assay (in words)” value was “inactive”.
For the compound `Oc1ccc2[nH]c(-c3ccc(N4CCC[C@@H](O)C4)nc3)cc2c1` [Compound 27, 2-{6-[(3R)-3-Hydroxypiperidin-1-yl]pyridin-3-yl}-1H-indol-5-ol], the “Selectivity for tau relative to Aβ” value in data set [1] is listed as 1.3. Moreover, the negative-log IC50 (pIC50) in data set [2] was 7.60; in data set [3], 7.49.
For the compound `Oc1ccc2[nH]c(-c3ccc(N4CCC[C@@H](O)C4)nc3F)cc2c1` [Compound 6, 2-{2-Fluoro-6-[(3R)-3-hydroxypiperidin-1-yl]pyridin-3-yl}-1H-indol-5-ol], in data set [1], the “Selectivity for tau relative to Aβ” value is on record as 37. For the same compound, the negative-log IC50 (pIC50) in data set [2] is 9.00; in data set [3], 7.43.
With `OCCC1CN(c2ccc(-c3cc4cc(O)ccc4[nH]3)c(F)n2)C1` [Compound 5], the “Selectivity for tau relative to Aβ” value in data set [1] is 1.6. For the same compound, the pIC50 is 8.15 in data set [2] and 7.96 in data set [3].
